We go through three compounds from patent US20220040263A1, “COMPANION DIAGNOSTIC FOR COMBINATION LENALIDOMIDE AND ERYTHROPOIETIN TREATMENT” (H. Lee Moffitt Cancer Center and Research Institute, Inc., priority 2016, published 2022).

“Also recorded” adds a separate entry of the source.

In test [1] the test system is Jak2 and STAT5 phosphorylation in UT7 cells. The experiment in a line: Jak2 and STAT5 phosphorylation in UT7 cells with JAK or Src kinase inhibitors (Western). It is filed as cell-based. The procedure:
10×10^7 UT7 cells were serum starved then treated with SKI 606 or AG490 for 30 minutes, CC5013 for 2 hours, and stimulated with EPO (1 U/ml) for 10 minutes at 37° C. Cells were lysed and […] run on a 4-15% Gradient gel (Bio-rad). Antibodies included p-STAT5 (Upstate, 1:1000 in 5% TBS/milk), total STAT5 (Cell Signaling, 1:10000 in 5% TBS/milk), and p-Jak2 (Santa Cruz, 1:500 in 5% TBS/milk). Blots were developed with an ECL detection kit (Amersham).
To further evaluate the mechanism by which lenalidomide enhances the EPO-R signal, STAT5 activation was assessed in response to EPO+lenalidomide treatment using selective pharmacologic inhibitors of JAK (AG490) or Src ([…]) kinases [FIG. 4].

A further test addresses T1, rhu-CD45 (Homo sapiens, UniProt P08575).
T1 construct: purchased Calbiochem
T1 sequence (P08575 26-1306): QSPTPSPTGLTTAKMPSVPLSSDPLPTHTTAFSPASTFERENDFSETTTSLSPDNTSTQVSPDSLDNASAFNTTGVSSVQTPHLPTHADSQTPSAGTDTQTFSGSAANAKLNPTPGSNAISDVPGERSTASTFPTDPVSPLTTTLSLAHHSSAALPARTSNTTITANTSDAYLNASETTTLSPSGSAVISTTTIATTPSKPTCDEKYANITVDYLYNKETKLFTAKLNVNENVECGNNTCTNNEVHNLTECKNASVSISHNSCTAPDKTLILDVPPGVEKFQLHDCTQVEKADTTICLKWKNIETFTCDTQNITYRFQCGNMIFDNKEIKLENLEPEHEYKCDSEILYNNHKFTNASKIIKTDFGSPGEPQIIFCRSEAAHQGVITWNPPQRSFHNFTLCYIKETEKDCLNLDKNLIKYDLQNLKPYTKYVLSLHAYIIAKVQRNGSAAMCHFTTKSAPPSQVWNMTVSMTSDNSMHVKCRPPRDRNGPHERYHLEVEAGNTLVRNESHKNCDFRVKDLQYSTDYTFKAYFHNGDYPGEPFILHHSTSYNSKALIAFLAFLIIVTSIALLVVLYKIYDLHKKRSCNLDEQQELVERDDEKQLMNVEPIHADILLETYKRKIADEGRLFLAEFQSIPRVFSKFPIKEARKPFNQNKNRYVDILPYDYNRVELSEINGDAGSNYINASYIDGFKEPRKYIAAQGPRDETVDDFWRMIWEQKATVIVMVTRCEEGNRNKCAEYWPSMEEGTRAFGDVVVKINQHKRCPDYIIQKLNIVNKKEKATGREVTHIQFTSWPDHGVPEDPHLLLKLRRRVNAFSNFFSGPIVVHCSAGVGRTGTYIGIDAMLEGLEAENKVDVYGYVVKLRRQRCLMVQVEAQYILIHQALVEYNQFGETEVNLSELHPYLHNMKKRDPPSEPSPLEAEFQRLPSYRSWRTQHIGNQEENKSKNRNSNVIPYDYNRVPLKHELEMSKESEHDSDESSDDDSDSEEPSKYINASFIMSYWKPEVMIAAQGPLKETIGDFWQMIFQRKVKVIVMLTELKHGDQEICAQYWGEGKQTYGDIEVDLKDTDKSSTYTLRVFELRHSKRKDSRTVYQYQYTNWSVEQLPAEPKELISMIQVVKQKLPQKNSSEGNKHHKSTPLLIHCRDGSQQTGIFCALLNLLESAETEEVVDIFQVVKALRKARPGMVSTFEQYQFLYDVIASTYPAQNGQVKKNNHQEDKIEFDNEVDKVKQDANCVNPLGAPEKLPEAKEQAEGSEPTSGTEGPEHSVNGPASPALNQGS
The experiment in a line: BIOMOL Green CD45 Tyrosine Phosphatase Assay. It is filed as biochemical. The note with it: 1 μM, recombinant CD45, substrate pp60c-Src. The method, then: CD45-specific PTP activity was assayed as outlined in the BIOMOL Green™ CD45 Tyrosine Phosphatase Assay Kit. Briefly, 75 U of rhu-CD45 (Calbiochem) was incubated for 1H at 37° C. with the indicated inhibitors (1 μM CC5013 and thalidomide, 100 μM Na Orthovanadate, and 50 μM RWJ-60475 (CD45-specific PTP inhibitor) in 1× assay buffer. The substrate pp60c-Src was added at 200 μM and incubated for 1H at 37° C. Samples were read on a plate reader at 620 nm. Percent PTP activity was calculated according to the equation (OD of test sample/OD of control)×100.
This notion is in agreement with findings that lenalidomide suppressed cytosolic release of Csk that is dependent upon dephosphorylation of the Cbp/PAG Csk docking site (Tyr314) by CD45. To determine if lenalidomide inhibits CD45 phosphatase, recombinant CD45 PTP inhibition by lenalidomide and thalidomide was compared to the pan-PTP inhibitor sodium orthovanadate and the CD45-selective inhibitor, RWJ-60475 using the Biomol CD45 phosphatase assay. […] [FIG. 7].

Another test concerns U937 (non-del5q) cells. The experiment in a line: Apoptosis by Annexin-V/PI flow cytometry in U937 cells. The class given is cell-based. The settings on record: 24 hours, all concentrations. The method, then: (§1) AML-EH5q (FIG. 8A) and U937 (FIG. 8B) cells were exposed to lenalidomide, thalidomide or vehicle at the concentrations indicated for 24 hours in IMDM and 20% FBS and apoptosis assessed by flow cytometry using Annexin-V/PI staining. Briefly, cells are incubated for 20 minutes at room temperature in 50 mM HEPES (pH 7.4) and 150 mM NaCl containing 2 mM calcium chloride with a mixture of 1 μg/mLAnnexin V-FITC (Boehringer Mannhein, Mannhein, Germany) and 2.5 μg/mL propidium iodide (PI; Sigma-Aldrich) before analysis.
(§2) The hematologic effects of lenalidomide could derive from dual effects that are karyotype-dependent, i.e., (1) the potentiation of erythropoiesis in non-del5q erythroid precursors, and (2) selective suppression of del5q clones. To confirm that lenalidomide is selectively cytotoxic to del-5q clones, an AML cell line transformed from an MDS patient with isolated 5q31 deletion was cultivated and the cell line successfully maintained in suspension culture with recombinant myeloid growth factor supplementation. This cell line [designated AML-EH5q] is an AML cell line that harbors the isolated 5q-deletion. […] To evaluate the selectivity of lenalidomide cytotoxic for del5q clones, apoptotic response to lenalidomide and thalidomide was compared in AML-EH5q and U937 (non-del5q) cells by flow cytometry. […] Viability was unaffected at all concentrations for both agents in U937 cells.
A general note: A flow cytometer gives signals particle by particle.

Another test has as its system AML-EH5q cells. The experiment in a line: Apoptosis by Annexin-V/PI flow cytometry in AML-EH5q cells. The class given is cell-based. The settings on record: AML-EH5q (5q-deleted) cells, 24 hours. The method, then:
as §1, §2

For `N#C/C(=C/c1ccc(O)c(O)c1)C(=O)NCc1ccccc1` [AG490], the “effect of kinase inhibitor on lenalidomide's potentiation of EPO-induced STAT5 phosphorylation” value in test [1] is reported as “suppress”. In addition, the “effect of kinase inhibitor on lenalidomide-augmented EPO-induced Jak2-phosphorylation” value in test [1] (inhibitor 30 minutes, CC5013 2 hours, EPO 1 U/ml 10 minutes) is recorded as “abrogated”.
Consider `COc1cc(Nc2c(C#N)cnc3cc(OCCCN4CCN(C)CC4)c(OC)cc23)c(Cl)cc1Cl` [SKI-606], for which, in test [1], the “effect of kinase inhibitor on lenalidomide's potentiation of EPO-induced STAT5 phosphorylation” value is on record as “suppress”.
On to `O=C1CCC(N2C(=O)c3ccccc3C2=O)C(=O)N1` (stereo not drawn) [thalidomide], for which, on rhu-CD45, the “inhibition of CD45 PTP activity” value is “minimal inhibition”. Besides, the viability / apoptosis entry with U937 (non-del5q) cells was “comparatively inactive; also recorded: unaffected”. Besides, the “induction of programmed cell death (apoptosis)” value with AML-EH5q cells is “comparatively inactive”.
